The record followed here is US6706757B2, “Chroman derivatives as 5-hydroxytryptamine-6 ligands” (Wyeth, priority 2001, dated 2004).

pKi: −log10 of the molar value. Where a name gives a salt, the structure may show the parent alone.

Data set [1] addresses T1, human cloned 5-HT6 receptors (Homo sapiens, UniProt P50406).
T1 construct: expressed in transfected cells; host or cells: HeLa cells (membrane preparation)
As to the kind of experiment: 5-HT6 binding affinity, [3H]-LSD displacement on membranes of Hela cells expressing human cloned 5-HT6 receptors. To be noted: [3H]-LSD 3.0 nM, Hela cell membranes, 120 min at room temperature. Here is the method: The affinity of test compounds for the serotonin 5-HT6 receptor is evaluated in the following manner. Cultured Hela cells expressing human cloned 5-HT6 receptors are harvested and centrifuged at low speed (1,000×g) for 10.0 min to remove the culture media. The harvested cells are suspended in half volume of fresh physiological phosphate buffered saline solution and recentrifuged at the same speed. This operation is repeated. The collected cells are then homogenized in ten volumes of 50 mM Tris.HCl (pH 7.4) and 0.5 mM EDTA. The homogenate is centrifuged at 40,000×g for 30.0 min and the precipitate is collected. The obtained pellet is resuspended in 10 volumes of Tris.HCl buffer and recentrifuged at the same speed. The final pellet is suspended in a small volume of Tris.HCl buffer and the tissue protein content is determined in aliquots of 10-25 μl volumes. Bovine Serum Albumin is used as the standard in the protein determination according to the method described in Lowry et al., J. Biol. Chem., 193:265 (1951). The volume of the suspended cell membranes is adjusted to give a tissue protein concentration of 1.0 mg/ml of suspension. The prepared membrane suspension (10 times concentrated) is aliquoted in 1.0 ml volumes and stored at −70° C. until used in subsequent binding experiments.
Binding experiments are performed in a 96 well microtiter plate format, in a total volume of 200 μl. […] The test compounds are added in 20.0 μl volume.
The reaction is allowed to proceed in the dark for 120 min at room temperature, at which time, the bound ligand-receptor complex is filtered off on a 96 well unifilter with a Packard Filtermate® 196 Harvester. The bound complex caught on the filter disk is allowed to air dry and the radioactivity is measured in a Packard TopCount® equipped with six photomultiplier detectors, after the addition of 40.0 μl Microscint®-20 scintillant to each shallow well. The unifilter plate is heat-sealed and counted in a PackardTopCount® with a tritium efficiency of 31.0%.
Binding in the presence of varying concentrations of test compound is expressed as a percentage of specific binding in the absence of test compound. The results are plotted as log % bound versus log concentration of test compound. […] A linear regression line of data points is plotted, from which the IC50 value is determined and the Ki value is determined based upon the following equation: […]
where L is the concentration of the radioactive ligand used and KD is the dissociation constant of the ligand for the receptor, both expressed in nM.

T1 sequence (P50406 whole entry): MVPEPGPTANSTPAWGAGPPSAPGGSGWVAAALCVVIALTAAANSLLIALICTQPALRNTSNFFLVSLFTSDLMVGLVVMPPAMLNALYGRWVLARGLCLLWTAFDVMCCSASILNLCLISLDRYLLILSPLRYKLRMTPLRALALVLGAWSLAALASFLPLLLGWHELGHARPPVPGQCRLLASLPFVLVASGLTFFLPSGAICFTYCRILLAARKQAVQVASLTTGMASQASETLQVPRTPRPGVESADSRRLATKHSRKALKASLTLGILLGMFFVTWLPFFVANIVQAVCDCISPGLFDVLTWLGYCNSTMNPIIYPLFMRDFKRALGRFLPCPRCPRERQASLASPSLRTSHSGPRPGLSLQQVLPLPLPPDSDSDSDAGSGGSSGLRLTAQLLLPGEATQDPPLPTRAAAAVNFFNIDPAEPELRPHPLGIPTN

For `C[C@@H](NCC1CCc2ccc(N(C)S(=O)(=O)c3ccccc3Br)cc2O1)c1ccccc1` (stereo partly drawn) (as salt: HCl) [Example 51, 2-bromo-N-methyl-N-[2-({[(1R)-1-phenylethyl]amino}methyl)-3,4-dihydro-2H-chromen-7-yl]benzenesulfonamide], the melting point was 199 to 201 °C.
For the molecule `C[C@@H](NCC1CCc2ccc(N(C)S(=O)(=O)c3ccc(F)cc3)cc2O1)c1ccccc1` (stereo partly drawn) (as salt: HCl) [Example 52, 4-fluoro-N-methyl-N-[2-({[(1R)-1-phenylethyl]amino}methyl)-3,4-dihydro-2H-chromen-7-yl]benzenesulfonamide], the melting point lay within 208 to 210 °C.
Same read-out and setting: the same measure for `C[C@@H](NCC1CCc2ccc(N(C)S(=O)(=O)c3ccc(Cl)cc3)cc2O1)c1ccccc1` (stereo partly drawn) (as salt: HCl) [Example 53, 4-chloro-N-methyl-N-[2-({[(1R)-1-phenylethyl]amino}methyl)-3,4-dihydro-2H-chromen-7-yl]benzenesulfonamide]: 198 to 201 °C.
In data set [1], `C[C@@H](NCC1CCc2ccc(NS(=O)(=O)c3cccc4nonc34)cc2O1)c1ccccc1` (stereo partly drawn) [Example 32, N-[2-({[(1R)-1-Phenylethyl]amino}methyl)-3,4-dihydro-2H-chromen-7-yl]-2,1,3-benzoxadiazole-4-sulfonamide] had a pKi of 8.30.
On the same count and under the same terms, the result for `C[C@@H](NCC1CCc2ccc(NS(=O)(=O)c3c(Cl)nc4sccn34)cc2O1)c1ccccc1` (stereo partly drawn) [Example 33, 6-chloro-N-[2-({[(1R)-1-phenylethyl]amino}methyl)-3,4-dihydro-2H-chromen-7-yl]imidazo[2,1-b][1,3]thiazole-5-sulfonamide] reads 8.52; that for `C[C@@H](NCC1CCc2ccc(NS(=O)(=O)c3ccc(Br)s3)cc2O1)c1ccccc1` (stereo partly drawn) [Example 34, 5-bromo-N-[2-({[(1R)-1-phenylethyl]amino}methyl)-3,4-dihydro-2H-chromen-7-yl]-2-thiophenesulfonamide], 8.30.
On the same count and under the same terms, the result for `CC(=O)Nc1nc(C)c(S(=O)(=O)Nc2ccc3c(c2)OC(CN[C@H](C)c2ccccc2)CC3)s1` (stereo partly drawn) [Example 35, N-[4-methyl-5-({[2-({[(1R)-1-phenylethyl]amino}methyl)-3,4-dihydro-2H-chromen-7-yl]amino}sulfonyl)-1,3-thiazol-2-yl]acetamide] reads 8.15.
On the same count and under the same terms, the result for `Cc1c(S(=O)(=O)Nc2ccc3c(c2)OC(CN[C@H](C)c2ccccc2)CC3)sc2ccc(Cl)cc12` (stereo partly drawn) [Example 36, 5-chloro-3-methyl-N-[2-({[(1R)-1-phenylethyl]amino}methyl)-3,4-dihydro-2H-chromen-7-yl]-1-benzothiophene-2-sulfonamide] reads 7.35; that for `Cc1ccc(S(=O)(=O)Nc2ccc3c(c2)OC(CN[C@H](C)c2ccccc2)CC3)cc1` (stereo partly drawn) [Example 37, 4-methyl-N-[2-({[(1R)-1-phenylethyl]amino}methyl)-3,4-dihydro-2H-chromen-7-yl]benzenesulfonamide], 7.80; that for `C[C@@H](NCC1CCc2ccc(NS(=O)(=O)c3ccc(Cl)cc3)cc2O1)c1ccccc1` (stereo partly drawn) [Example 38, 4-chloro-N-[2-({[(1R)-1-phenylethyl]amino}methyl)-3,4-dihydro-2H-chromen-7-yl]benzenesulfonamide], 8.30.
In turn, `COc1ccc(S(=O)(=O)Nc2ccc3c(c2)OC(CN[C@H](C)c2ccccc2)CC3)cc1` (stereo partly drawn) [Example 39, 4-methoxy-N-[2-({[(1R)-1-phenylethyl]amino}methyl)-3,4-dihydro-2H-chromen-7-yl]benzenesulfonamide] gave a pKi in data set [1] of 8.00.
The same measure, in the same setting: the same measure for `C[C@@H](NCC1CCc2ccc(NS(=O)(=O)c3ccc(OC(F)(F)F)cc3)cc2O1)c1ccccc1` (stereo partly drawn) [Example 40, N-[2-({[(1R)-1-phenylethyl]amino}methyl)-3,4-dihydro-2H-chromen-7-yl]-4-(trifluoromethoxy)benzenesulfonamide]: 7.96.
`C[C@@H](NCC1CCc2ccc(NS(=O)(=O)c3cccc4ccccc34)cc2O1)c1ccccc1` (stereo partly drawn) [Example 41, N-[2-({[(1R)-1-phenylethyl]amino}methyl)-3,4-dihydro-2H-chromen-7-yl]naphthalene-1-sulfonamide] showed a negative logarithm of the Ki (pKi) in data set [1] of 8.40.
Still for that read-out and setting: the same measure for `C[C@@H](NCC1CCc2ccc(NS(=O)(=O)c3ccc(Cl)s3)cc2O1)c1ccccc1` (stereo partly drawn) [Example 42, 5-chloro-N-[2-({[(1R)-1-phenylethyl]amino}methyl)-3,4-dihydro-2H-chromen-7-yl]thiophene-2-sulfonamide]: 8.70.
On the same count and under the same terms, the same measure for `C[C@@H](NCC1CCc2ccc(NS(=O)(=O)c3ccc(C(F)(F)F)cc3)cc2O1)c1ccccc1` (stereo partly drawn) [Example 43, N-[2-({[(1R)-1-phenylethyl]amino}methyl)-3,4-dihydro-2H-chromen-7-yl]-4-(trifluoromethyl)benzenesulfonamide]: 8.22.
`C[C@@H](NCC1CCc2ccc(NS(=O)(=O)c3ccc(N)cc3)cc2O1)c1ccccc1` (stereo partly drawn) [Example 44, 4-amino-N-[2-({[(1R)-1-phenylethyl]amino}methyl)-3,4-dihydro-2H-chromen-7-yl]benzenesulfonamide] gave a negative-log Ki (pKi) in data set [1] of 9.00.
On the same count and under the same terms, the same measure for `C[C@@H](NC[C@H]1CCc2ccc(NS(=O)(=O)c3ccccc3)cc2O1)c1ccccc1` [Example 45A]: 9.00; for `C[C@@H](NC[C@@H]1CCc2ccc(NS(=O)(=O)c3ccccc3)cc2O1)c1ccccc1` [Example 45B, N[(2S)-2-({[(1R)-1-Phenylethyl]amino}methyl)-3,4-dihydro-2H-chromen-7-yl]phenylsulfonamide]: 7.77; for `C[C@@H](NC[C@H]1CCc2ccc(NS(=O)(=O)c3cccc4ccccc34)cc2O1)c1ccccc1` [Example 46A, N-[(2R)-2-({[(1R)-1-phenylethyl]amino}-methyl)-3,4-dihydro-2H-chromen-7-yl)naphthalene-1-sulfonamide Hydrochloride]: 7.43.
The same measure, in the same setting: the same measure for `C[C@@H](NC[C@@H]1CCc2ccc(NS(=O)(=O)c3cccc4ccccc34)cc2O1)c1ccccc1` [Example 46B, N-[(2S)-2({[(1R)-1-phenylethyl]amino}methyl)-3,4-dihydro-2H-chromen-7-yl]naphthalene-1-sulfonamide Hydrochloride]: 8.70.
Still for that read-out and setting: the result for `C[C@@H](NC[C@@H]1CCc2ccc(NS(=O)(=O)c3ccc(N)cc3)cc2O1)c1ccccc1` [Example 47B, 4-Amino-N-[(2S)-2-({[(1R)-1-phenylethyl]amino}methyl)-3,4-dihydro-2H-chromen-7-yl]benezenesulfonamide Hydrochloride] reads 7.96; that for `C[C@@H](NCC1CCc2ccc(N(C)S(=O)(=O)c3ccccc3Br)cc2O1)c1ccccc1` (stereo partly drawn) [Example 51, 2-bromo-N-methyl-N-[2-({[(1R)-1-phenylethyl]amino}methyl)-3,4-dihydro-2H-chromen-7-yl]benzenesulfonamide], 8.52.
With `C[C@@H](NCC1CCc2ccc(N(C)S(=O)(=O)c3ccc(F)cc3)cc2O1)c1ccccc1` (stereo partly drawn) [Example 52, 4-fluoro-N-methyl-N-[2-({[(1R)-1-phenylethyl]amino}methyl)-3,4-dihydro-2H-chromen-7-yl]benzenesulfonamide], in data set [1], the negative-log Ki (pKi) is 8.15.
Same read-out and setting: the same measure for `C[C@@H](NCC1CCc2ccc(N(C)S(=O)(=O)c3ccc(Cl)cc3)cc2O1)c1ccccc1` (stereo partly drawn) [Example 53, 4-chloro-N-methyl-N-[2-({[(1R)-1-phenylethyl]amino}methyl)-3,4-dihydro-2H-chromen-7-yl]benzenesulfonamide]: 8.30.
`COc1ccc(S(=O)(=O)N(C)c2ccc3c(c2)OC(CN[C@H](C)c2ccccc2)CC3)cc1OC` (stereo partly drawn) [Example 54, 3,4-dimethoxy-N-methyl-N-[2-({[(1R)-1-phenylethyl]amino}methyl)-3,4-dihydro-2H-chromen-7-yl]benzenesulfonamide] showed a pKi in data set [1] of 7.96.
On to `C[C@@H](NCC1CCc2ccc(N(C)S(=O)(=O)c3cccc4ccccc34)cc2O1)c1ccccc1` (stereo partly drawn) [Example 55, N-methyl-N-[2-({[(1R)-1-phenylethyl]amino}methyl)-3,4-dihydro-2H-chromen-7-yl]naphthalene-1-sulfonamide], for which, in data set [1], the negative-log Ki (pKi) was 8.40.
The same measure, in the same setting: the result for `C[C@@H](NCC1CCc2ccc(N(C)S(=O)(=O)c3ccc(N)cc3)cc2O1)c1ccccc1` (stereo partly drawn) [Example 56, 4-amino-N-methyl-N-[2-({[(1R)-1-phenylethyl]amino}methyl)-3,4-dihydro-2H-chromen-7-yl]benzenesulfonamide] reads 8.40.
